Active and inactive are the calls of the source. The rule behind the calls is not given here.

Experiment [1] concerns the target 5-hydroxytryptamine receptor 1E (Homo sapiens) (UniProt P28566). Conditions: Compound concentration 10.0 uM.
In experiment [2] the target is Mitogen-activated protein kinase kinase kinase 7 (Homo sapiens) (UniProt O43318). In words: mitogen-activated protein kinase kinase kinase 7 Millipore kinase panel. Conditions: Compound concentration 10.0 uM.
Experiment [3] deals with Serine/threonine-protein kinase D2 (Homo sapiens) (UniProt Q9BZL6). In words: protein kinase D2 Millipore kinase panel. Conditions: Compound concentration 10.0 uM.
The target in experiment [4] is Macrophage colony-stimulating factor 1 receptor (Homo sapiens) (UniProt P07333). In words: colony stimulating factor 1 receptor Millipore kinase panel. Conditions: Compound concentration 10.0 uM.
For experiment [5], the target named is Mitogen-activated protein kinase 11 (Homo sapiens) (UniProt Q15759). In words: mitogen-activated protein kinase 11 Millipore kinase panel. The settings on record: Compound concentration 10.0 uM.
In experiment [6] the target is T1, Muscarinic acetylcholine receptor M1 (Homo sapiens) (UniProt P11229).
T1 sequence (whole entry): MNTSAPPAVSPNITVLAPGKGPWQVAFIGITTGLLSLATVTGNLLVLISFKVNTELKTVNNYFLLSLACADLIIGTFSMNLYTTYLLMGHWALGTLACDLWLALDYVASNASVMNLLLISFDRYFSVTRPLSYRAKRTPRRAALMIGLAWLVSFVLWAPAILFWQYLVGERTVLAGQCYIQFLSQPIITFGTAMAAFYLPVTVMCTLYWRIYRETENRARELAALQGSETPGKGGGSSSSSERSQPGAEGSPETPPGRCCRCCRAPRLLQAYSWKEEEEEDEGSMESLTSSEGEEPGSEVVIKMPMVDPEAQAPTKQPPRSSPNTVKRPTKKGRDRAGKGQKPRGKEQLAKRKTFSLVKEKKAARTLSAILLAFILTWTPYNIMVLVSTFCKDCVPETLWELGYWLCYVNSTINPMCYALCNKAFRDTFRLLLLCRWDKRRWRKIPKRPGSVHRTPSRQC
Kind of experiment: hM1 Cerep panel. Conditions: Compound concentration 10.0 uM.

Experiment [7] deals with T2, Muscarinic acetylcholine receptor M2 (Homo sapiens) (UniProt P08172).
T2 sequence (whole entry): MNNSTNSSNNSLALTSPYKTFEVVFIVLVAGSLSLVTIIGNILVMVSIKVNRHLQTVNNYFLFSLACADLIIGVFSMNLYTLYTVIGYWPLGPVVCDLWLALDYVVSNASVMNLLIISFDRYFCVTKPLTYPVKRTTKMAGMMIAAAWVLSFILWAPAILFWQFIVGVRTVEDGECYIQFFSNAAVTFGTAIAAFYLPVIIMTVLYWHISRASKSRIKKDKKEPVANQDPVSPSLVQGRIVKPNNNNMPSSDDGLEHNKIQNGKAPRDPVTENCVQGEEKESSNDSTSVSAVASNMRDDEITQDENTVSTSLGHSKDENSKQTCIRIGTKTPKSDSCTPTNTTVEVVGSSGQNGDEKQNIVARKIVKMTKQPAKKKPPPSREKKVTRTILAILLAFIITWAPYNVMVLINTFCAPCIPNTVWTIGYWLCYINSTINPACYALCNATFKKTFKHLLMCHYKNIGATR
Kind of experiment: hM2 Cerep panel. Conditions: Compound concentration 10.0 uM.

Experiment [8] concerns the target Cyclin-dependent kinase 5/CDK5 activator 1 (Homo sapiens) (UniProt Q00535+Q15078). Kind of experiment: cyclin-dependent kinase 5 / p25 Millipore kinase panel. The class given is protein-complex assay. Conditions: Compound concentration 10.0 uM.
Experiment [9] addresses Tyrosine-protein kinase receptor TYRO3 (Homo sapiens) (UniProt Q06418). In words: TYRO3 protein tyrosine kinase Millipore kinase panel. Conditions: Compound concentration 10.0 uM.
Experiment [10] concerns the target C-X-C chemokine receptor type 2 (Homo sapiens) (UniProt P25025). Kind of experiment: hBCXCR2 Cerep panel. Conditions: Compound concentration 10.0 uM.
In experiment [11] the target is Prostaglandin G/H synthase 1 (Homo sapiens) (UniProt P23219). In words: hCOX1 Cerep panel. Conditions: Compound concentration 10.0 uM.
In experiment [12] the target is 5-hydroxytryptamine receptor 2B (Homo sapiens, UniProt P41595). In words: h5HT2B Cerep panel. Conditions: Compound concentration 10.0 uM.
For experiment [13], the target named is Serine/threonine-protein kinase 4 (Homo sapiens) (UniProt Q13043). Kind of experiment: serine/threonine kinase 4 Millipore kinase panel. The settings on record: Compound concentration 10.0 uM.
In experiment [14] the target is Serine/threonine-protein kinase Chk1 (Homo sapiens) (UniProt O14757). Kind of experiment: CHK1 checkpoint homolog (S. pombe) Millipore kinase panel. Conditions: Compound concentration 10.0 uM.
In experiment [15] the target is Tyrosine-protein kinase Lck (Homo sapiens) (UniProt P06239). In words: lymphocyte-specific protein tyrosine kinase (activated) Millipore kinase panel. Conditions: Compound concentration 10.0 uM.
For experiment [16], the target named is Ephrin type-B receptor 1 (Homo sapiens) (UniProt P54762). In words: EPH receptor B1 Millipore kinase panel. The settings on record: Compound concentration 10.0 uM.
In experiment [17] the target is Death-associated protein kinase 3 (Homo sapiens) (UniProt O43293). Kind of experiment: death-associated protein kinase 3 Millipore kinase panel. The settings on record: Compound concentration 10.0 uM.
The target of experiment [18] is cAMP and cAMP-inhibited cGMP 3',5'-cyclic phosphodiesterase 10A (Mus musculus, UniProt Q8CA95). In words: SPA with mouse PDE10A.
In experiment [19] the target is Prostaglandin E2 receptor EP4 subtype (Homo sapiens) (UniProt P35408). In words: hEP4 Cerep panel. Conditions: Compound concentration 10.0 uM.
For experiment [20], the species on record is Rattus norvegicus. Kind of experiment: rK channel Cerep panel. Conditions: Compound concentration 10.0 uM.
Experiment [21] is filed under the species Rattus norvegicus. In words: rSKCa channel Cerep panel. The settings on record: Compound concentration 10.0 uM.
For experiment [22], the target named is Insulin-like growth factor 1 receptor (Homo sapiens) (UniProt P08069). In words: insulin-like growth factor 1 receptor Millipore kinase panel. The settings on record: Compound concentration 10.0 uM.
Sequence of Insulin-like growth factor 1 receptor (Homo sapiens) (P08069 31-736 limits assumed): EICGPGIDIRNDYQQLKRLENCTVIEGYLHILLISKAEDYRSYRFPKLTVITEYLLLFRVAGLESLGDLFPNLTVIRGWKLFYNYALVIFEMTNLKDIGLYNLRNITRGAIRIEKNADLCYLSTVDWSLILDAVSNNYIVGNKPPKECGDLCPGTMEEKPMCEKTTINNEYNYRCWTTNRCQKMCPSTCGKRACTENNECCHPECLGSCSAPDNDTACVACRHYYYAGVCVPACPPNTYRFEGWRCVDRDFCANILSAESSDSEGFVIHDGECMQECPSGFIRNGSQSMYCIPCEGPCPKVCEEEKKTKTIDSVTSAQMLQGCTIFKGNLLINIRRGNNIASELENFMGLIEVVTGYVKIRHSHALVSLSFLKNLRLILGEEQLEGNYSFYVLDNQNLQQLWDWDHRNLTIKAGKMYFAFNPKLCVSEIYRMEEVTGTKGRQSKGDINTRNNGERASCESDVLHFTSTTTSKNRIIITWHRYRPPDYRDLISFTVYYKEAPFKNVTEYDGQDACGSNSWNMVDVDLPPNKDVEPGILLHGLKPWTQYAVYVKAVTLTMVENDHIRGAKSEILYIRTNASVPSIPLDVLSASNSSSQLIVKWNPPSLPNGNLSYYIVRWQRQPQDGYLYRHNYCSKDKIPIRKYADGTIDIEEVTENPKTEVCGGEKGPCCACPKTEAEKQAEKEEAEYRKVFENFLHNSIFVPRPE
Sequence of Insulin-like growth factor 1 receptor (Homo sapiens) (P08069 741-1367 limits assumed): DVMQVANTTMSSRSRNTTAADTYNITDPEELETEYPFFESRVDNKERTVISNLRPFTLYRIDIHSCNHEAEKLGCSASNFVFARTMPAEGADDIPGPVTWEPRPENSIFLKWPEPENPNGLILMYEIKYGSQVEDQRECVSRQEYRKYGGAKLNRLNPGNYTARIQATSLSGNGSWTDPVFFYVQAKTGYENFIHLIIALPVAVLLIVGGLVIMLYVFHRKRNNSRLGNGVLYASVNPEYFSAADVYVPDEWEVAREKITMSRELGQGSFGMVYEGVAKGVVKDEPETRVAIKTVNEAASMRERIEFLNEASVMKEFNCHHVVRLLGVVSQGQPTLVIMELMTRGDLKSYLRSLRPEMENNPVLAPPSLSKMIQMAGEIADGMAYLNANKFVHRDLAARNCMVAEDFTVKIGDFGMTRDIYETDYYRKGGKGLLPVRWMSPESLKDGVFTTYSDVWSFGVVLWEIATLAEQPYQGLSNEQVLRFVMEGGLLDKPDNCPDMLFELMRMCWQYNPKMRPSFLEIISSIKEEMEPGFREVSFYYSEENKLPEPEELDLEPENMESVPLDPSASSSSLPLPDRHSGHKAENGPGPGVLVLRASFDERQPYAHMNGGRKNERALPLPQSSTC
The target in experiment [23] is Insulin receptor-related protein (Homo sapiens) (UniProt P14616). In words: insulin receptor-related receptor Millipore kinase panel. Conditions: Compound concentration 10.0 uM.
Experiment [24] addresses Insulin-like growth factor 1 receptor (Homo sapiens) (UniProt P08069). In words: insulin-like growth factor 1 receptor (activated) Millipore kinase panel. The settings on record: Compound concentration 10.0 uM.
In experiment [25] the target is Ribosomal protein S6 kinase alpha-6 (Homo sapiens) (UniProt Q9UK32). Kind of experiment: ribosomal protein S6 kinase, 90kDa, polypeptide 6 Millipore kinase panel. Conditions: Compound concentration 10.0 uM.
In experiment [26] the target is High affinity cAMP-specific and IBMX-insensitive 3',5'-cyclic phosphodiesterase 8A (Homo sapiens, UniProt O60658). In words: hPDE8A1 PDE scan.
Experiment [27] addresses Insulin receptor (Homo sapiens) (UniProt P06213). In words: insulin receptor (activated) Millipore kinase panel. The settings on record: Compound concentration 10.0 uM.
The target of experiment [28] is Tyrosine-protein kinase HCK (Homo sapiens) (UniProt P08631). In words: hemopoietic cell kinase Millipore kinase panel. The settings on record: Compound concentration 10.0 uM.
Experiment [29] has as its target Prostaglandin E2 receptor EP2 subtype (Homo sapiens) (UniProt P43116). In words: hEP2 Cerep panel. Conditions: Compound concentration 10.0 uM.
The target in experiment [30] is Protein kinase C zeta type (Homo sapiens) (UniProt Q05513). Kind of experiment: protein kinase C, zeta Millipore kinase panel. The settings on record: Compound concentration 10.0 uM.
For experiment [31], the target named is Tyrosine-protein kinase ITK/TSK (Homo sapiens) (UniProt Q08881). In words: IL2-inducible T-cell kinase Millipore kinase panel. The settings on record: Compound concentration 10.0 uM.
Sequence of Tyrosine-protein kinase ITK/TSK (Homo sapiens) (Q08881 whole entry, canonical isoform): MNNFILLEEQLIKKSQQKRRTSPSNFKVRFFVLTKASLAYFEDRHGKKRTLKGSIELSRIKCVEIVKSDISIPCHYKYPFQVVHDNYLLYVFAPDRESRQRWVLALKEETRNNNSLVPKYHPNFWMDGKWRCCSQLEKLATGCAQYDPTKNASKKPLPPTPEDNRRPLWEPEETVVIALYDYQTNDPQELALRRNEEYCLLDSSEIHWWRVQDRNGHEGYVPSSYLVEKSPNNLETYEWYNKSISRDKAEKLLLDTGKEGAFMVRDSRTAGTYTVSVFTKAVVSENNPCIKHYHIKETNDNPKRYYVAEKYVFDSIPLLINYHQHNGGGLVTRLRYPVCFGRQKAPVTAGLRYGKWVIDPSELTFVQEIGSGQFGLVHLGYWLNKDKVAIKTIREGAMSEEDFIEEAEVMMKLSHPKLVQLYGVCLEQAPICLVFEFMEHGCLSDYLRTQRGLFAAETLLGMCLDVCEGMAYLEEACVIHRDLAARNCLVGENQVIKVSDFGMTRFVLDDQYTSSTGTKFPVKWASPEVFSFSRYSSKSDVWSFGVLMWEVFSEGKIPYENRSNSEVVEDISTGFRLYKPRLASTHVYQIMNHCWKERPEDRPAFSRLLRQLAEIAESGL
The target in experiment [32] is Phosphatidylinositol 4,5-bisphosphate 3-kinase catalytic subunit beta isoform (Homo sapiens) (UniProt P42338). In words: phosphoinositide-3-kinase, catalytic, beta polypeptide Millipore kinase panel. The settings on record: Compound concentration 10.0 uM.
In experiment [33] the target is Testis-specific serine/threonine-protein kinase 2 (Homo sapiens) (UniProt Q96PF2). In words: testis-specific serine kinase 2 Millipore kinase panel. The settings on record: Compound concentration 10.0 uM.
Sequence of Testis-specific serine/threonine-protein kinase 2 (Homo sapiens) (Q96PF2 whole entry): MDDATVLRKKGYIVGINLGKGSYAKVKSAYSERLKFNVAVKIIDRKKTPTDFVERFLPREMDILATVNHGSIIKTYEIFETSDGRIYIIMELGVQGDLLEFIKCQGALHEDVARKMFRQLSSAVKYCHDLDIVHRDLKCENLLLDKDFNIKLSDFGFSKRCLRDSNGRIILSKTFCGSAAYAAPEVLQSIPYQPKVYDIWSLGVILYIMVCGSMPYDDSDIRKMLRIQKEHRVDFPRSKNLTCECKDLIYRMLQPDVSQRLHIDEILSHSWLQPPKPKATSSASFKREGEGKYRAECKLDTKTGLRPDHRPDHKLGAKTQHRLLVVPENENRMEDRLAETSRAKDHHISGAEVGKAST
For experiment [34], the target named is Glutamate NMDA receptor (Rattus norvegicus) (UniProt P35439+Q00959+Q00960+Q00961+Q62645+Q8VHN2+Q9R1M7). Kind of experiment: rPCP Cerep panel. The class given is protein-complex assay. The settings on record: Compound concentration 10.0 uM.
The target of experiment [35] is Fibroblast growth factor receptor 2 (Homo sapiens) (UniProt P21802). In words: fibroblast growth factor receptor 2 Millipore kinase panel. Conditions: Compound concentration 10.0 uM.
Sequence of Fibroblast growth factor receptor 2 (Homo sapiens) (P21802 22-821 limits assumed): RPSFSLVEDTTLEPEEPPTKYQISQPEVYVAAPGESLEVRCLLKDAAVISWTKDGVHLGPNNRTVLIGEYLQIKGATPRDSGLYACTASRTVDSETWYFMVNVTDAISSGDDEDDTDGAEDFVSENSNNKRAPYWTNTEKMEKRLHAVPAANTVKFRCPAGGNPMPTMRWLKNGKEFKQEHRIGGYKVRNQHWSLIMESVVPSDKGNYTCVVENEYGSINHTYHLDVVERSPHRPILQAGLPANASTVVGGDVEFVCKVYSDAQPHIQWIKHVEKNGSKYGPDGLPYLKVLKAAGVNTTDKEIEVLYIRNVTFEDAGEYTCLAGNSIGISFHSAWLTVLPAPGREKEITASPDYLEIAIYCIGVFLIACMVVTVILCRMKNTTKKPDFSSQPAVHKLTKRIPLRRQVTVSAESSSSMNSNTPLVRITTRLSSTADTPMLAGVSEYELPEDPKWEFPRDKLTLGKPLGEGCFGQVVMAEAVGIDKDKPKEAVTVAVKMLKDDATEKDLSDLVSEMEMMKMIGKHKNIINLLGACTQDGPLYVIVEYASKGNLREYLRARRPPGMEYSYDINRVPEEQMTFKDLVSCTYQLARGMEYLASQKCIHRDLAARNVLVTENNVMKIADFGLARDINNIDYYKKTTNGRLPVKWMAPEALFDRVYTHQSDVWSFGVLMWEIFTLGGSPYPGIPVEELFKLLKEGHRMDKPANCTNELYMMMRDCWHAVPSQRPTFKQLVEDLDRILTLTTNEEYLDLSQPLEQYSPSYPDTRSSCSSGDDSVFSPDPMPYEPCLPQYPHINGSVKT
Experiment [36] deals with Ribosomal protein S6 kinase alpha-5 (Homo sapiens) (UniProt O75582). Kind of experiment: ribosomal protein S6 kinase, 90kDa, polypeptide 5 Millipore kinase panel. The settings on record: Compound concentration 10.0 uM.
For experiment [37], the target named is Vascular endothelial growth factor receptor 2 (Homo sapiens) (UniProt P35968). Kind of experiment: kinase insert domain receptor Millipore kinase panel. The settings on record: Compound concentration 10.0 uM.
Sequence of Vascular endothelial growth factor receptor 2 (Homo sapiens) (P35968 whole entry, the tested form may be a part): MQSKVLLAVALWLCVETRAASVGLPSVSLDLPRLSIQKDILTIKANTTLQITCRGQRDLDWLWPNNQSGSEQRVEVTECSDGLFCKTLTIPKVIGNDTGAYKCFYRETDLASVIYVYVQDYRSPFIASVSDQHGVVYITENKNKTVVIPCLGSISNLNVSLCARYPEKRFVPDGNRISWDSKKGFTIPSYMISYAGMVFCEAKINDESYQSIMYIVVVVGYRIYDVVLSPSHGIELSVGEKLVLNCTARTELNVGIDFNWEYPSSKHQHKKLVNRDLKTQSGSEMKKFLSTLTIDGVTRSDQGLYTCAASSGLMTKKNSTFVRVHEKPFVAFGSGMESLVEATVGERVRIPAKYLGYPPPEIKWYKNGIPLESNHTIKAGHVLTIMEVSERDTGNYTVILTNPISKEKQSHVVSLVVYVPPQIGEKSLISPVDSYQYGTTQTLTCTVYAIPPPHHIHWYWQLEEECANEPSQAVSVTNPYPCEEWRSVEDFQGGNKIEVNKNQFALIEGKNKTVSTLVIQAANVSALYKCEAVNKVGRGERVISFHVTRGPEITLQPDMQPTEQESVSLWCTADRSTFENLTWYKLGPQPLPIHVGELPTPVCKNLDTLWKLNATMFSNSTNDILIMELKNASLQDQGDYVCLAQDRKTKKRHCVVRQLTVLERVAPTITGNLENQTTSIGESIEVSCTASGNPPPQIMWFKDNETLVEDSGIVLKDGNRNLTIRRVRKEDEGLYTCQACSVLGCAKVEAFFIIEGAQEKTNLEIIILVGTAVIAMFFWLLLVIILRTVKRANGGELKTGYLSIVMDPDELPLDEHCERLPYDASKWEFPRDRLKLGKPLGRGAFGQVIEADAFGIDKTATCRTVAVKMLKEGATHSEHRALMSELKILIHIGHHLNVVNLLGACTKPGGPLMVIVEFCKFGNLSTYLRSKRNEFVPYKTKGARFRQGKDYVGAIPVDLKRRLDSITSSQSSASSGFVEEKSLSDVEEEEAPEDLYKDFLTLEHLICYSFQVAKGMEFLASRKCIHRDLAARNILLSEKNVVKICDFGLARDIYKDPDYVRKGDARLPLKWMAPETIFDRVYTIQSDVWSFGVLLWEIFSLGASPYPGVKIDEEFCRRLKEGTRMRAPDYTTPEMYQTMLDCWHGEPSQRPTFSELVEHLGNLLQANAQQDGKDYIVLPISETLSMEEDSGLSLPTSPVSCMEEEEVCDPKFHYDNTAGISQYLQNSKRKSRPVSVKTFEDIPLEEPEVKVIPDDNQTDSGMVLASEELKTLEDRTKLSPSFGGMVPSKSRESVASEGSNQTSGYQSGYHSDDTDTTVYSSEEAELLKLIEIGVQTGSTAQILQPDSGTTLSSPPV

Sequence of Mitogen-activated protein kinase kinase kinase 7 (Homo sapiens) (O43318 whole entry): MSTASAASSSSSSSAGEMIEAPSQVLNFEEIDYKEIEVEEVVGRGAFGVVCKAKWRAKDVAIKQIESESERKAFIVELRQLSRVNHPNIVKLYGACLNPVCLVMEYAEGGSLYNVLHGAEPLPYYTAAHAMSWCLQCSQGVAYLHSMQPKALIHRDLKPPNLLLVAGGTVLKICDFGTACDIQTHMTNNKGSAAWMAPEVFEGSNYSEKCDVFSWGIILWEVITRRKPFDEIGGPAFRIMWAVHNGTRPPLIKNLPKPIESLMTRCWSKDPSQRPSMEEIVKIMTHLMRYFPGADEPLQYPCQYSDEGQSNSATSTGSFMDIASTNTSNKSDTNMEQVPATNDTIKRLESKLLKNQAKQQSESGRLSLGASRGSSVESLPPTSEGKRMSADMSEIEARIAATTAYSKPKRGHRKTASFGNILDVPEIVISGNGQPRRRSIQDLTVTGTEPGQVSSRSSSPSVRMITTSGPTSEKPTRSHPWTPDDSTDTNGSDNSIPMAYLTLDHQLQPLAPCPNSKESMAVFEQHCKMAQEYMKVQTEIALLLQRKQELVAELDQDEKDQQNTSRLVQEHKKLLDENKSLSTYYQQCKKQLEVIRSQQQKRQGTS

On to `c1ccc(C2CCN(c3cnc4c(N5CCOCC5)nccn34)CC2)cc1`, for which the inhibition in experiment [1] was 5.84%.

For the compound `COCCc1ccc(-c2c(C)nc3c(N4CCOCC4)ccnn23)cn1` [JNJ-42396302], the inhibition in experiment [2] is 5%; in experiment [3], 2%; in [4], 4%; in experiment [5] it was -2%; in experiment [8], 0%; in experiment [9], 1%. For the same compound, the inhibition in [13] was -7%; in experiment [14] it was -9%; in experiment [15] it was -4%; in [16], 2%; in [17], -2%; in experiment [22], 1%. Also, the inhibition in experiment [23] was 10%; in experiment [24], 3%; in [25] it was -10%; in [27] it was -2%; in [28] it was -2%; in [30] it was 5%. In addition, the inhibition is 1% in [31]; 1% in [32]; 1% in [33]; -5% in [35]; 3% in experiment [36]; -4% in experiment [37]. Moreover, the effect was 2.2% in [6]; 11% in experiment [7]; 5.15% in [10]; 13% in experiment [11]; 2.4% in experiment [12]; 13.6% in experiment [19]. Moreover, the effect in the experiment filed under Rattus norvegicus [20] is -9.45%; in the experiment filed under Rattus norvegicus [21] it was 7.4%; in experiment [29] it was 3.95%; in experiment [34], -3.5%. In addition, the Ki in experiment [18] was 0.011 µM (active); in [26], 41 µM.

The values above are taken from ChEMBL document CHEMBL4800727 (2021).
